According to EP0158299A2, “Substituted phenylethyl derivatives, process for their preparation and pharmaceutical agents” (Merz & Co. GmbH & Co., priority 1984, dated 1985):
In brackets after ≈: the same amount, converted by molar mass. Structures can show the parent of a compound that is named as a salt.

Columns and labels:
Format in all cases: cell-based
A.c. = assay: serial dilution test, fungistatic activity (MIC); conditions: Pilzspezies A.c.; read-out: Minimale Hemmkonzentrationen
Description: (§1) Die erfindungemäßen Verbindungen wurden im Reihenverdünnungstest auf ihre fungistatische Wirksamkeit gegen verschiedene Pilzspezies und gegen verschiedene Bakterienstämme geprüft. Die so ermittelten minimalen Hemmkonzentrationen (MHK) sind in den folgenden Tabellen wiedergegeben: […]

A.f. = assay: serial dilution test, fungistatic activity (MIC); conditions: Pilzspezies A.f.; read-out: Minimale Hemmkonzentrationen
Description: as §1

C.a. = assay: serial dilution test, fungistatic activity (MIC); conditions: Pilzspezies C.a.; read-out: Minimale Hemmkonzentrationen
Description: as §1

C.t. = assay: serial dilution test, fungistatic activity (MIC); conditions: Pilzspezies C.t.; read-out: Minimale Hemmkonzentrationen
Description: as §1

M.c. = assay: serial dilution test, fungistatic activity (MIC); conditions: Pilzspezies M.c.; read-out: Minimale Hemmkonzentrationen
Description: as §1

T.m. = assay: serial dilution test, fungistatic activity (MIC); conditions: Pilzspezies T.m.; read-out: Minimale Hemmkonzentrationen
Description: as §1

T.r. = assay: serial dilution test, fungistatic activity (MIC); conditions: Pilzspezies T.r.; read-out: Minimale Hemmkonzentrationen
Description: as §1

Staphylococcus aureus = assay: serial dilution test against bacterial strains (MIC); conditions: Bakterienstämme S.a. = Staphylococcus aureus; read-out: Minimale Hemmkonzentrationen
Description: as §1

Streptococcus faecalis = assay: as above; conditions: Enterococcus faecalis; Bakterienstämme S.f. = Streptococcus faecalis; read-out: Minimale Hemmkonzentrationen
Description: as §1

Streptococcus pyogenes = assay: as above; conditions: Bakterienstämme S.p. = Streptococcus pyogenes; read-out: Minimale Hemmkonzentrationen
Description: as §1

S.s. = assay: serial dilution test, fungistatic activity (MIC); conditions: Pilzspezies S.s.; read-out: Minimale Hemmkonzentrationen
Description: as §1

Compound FC(F)(Oc1ccc(CON=C(Cn2ccnc2)c2ccc(Cl)cc2Cl)cc1)C(Cl)Cl [Verbind. I, 1-(2,4-Dichlorphenyl)-2-(1H-imidazol-1-yl)-0-(4-(2,2-dichlor-1,1-difluorethoxy)benzyl)ethanonoxim-nitrat] has an MIC (A.c.) of 1.6 µg/mL (≈ 3.14 µM), an MIC (A.f.) of 12.5 µg/mL (≈ 24.5 µM) and an MIC (C.a.) of 0.1 µg/mL (≈ 0.196 µM). It also gave an MIC (C.t.) of 0.8 µg/mL (≈ 1.57 µM), an MIC (M.c.) of 3.1 µg/mL (≈ 6.09 µM) and an MIC (T.m.) of 6.25 µg/mL (≈ 12.3 µM). It also gave an MIC (T.r.) of 6.25 µg/mL (≈ 12.3 µM), an MIC (Staphylococcus aureus) of 6.25 µg/mL (≈ 12.3 µM) and an MIC (Streptococcus faecalis) of 12.5 µg/mL (≈ 24.5 µM). It also gave an MIC (Streptococcus pyogenes) of 0.8 µg/mL (≈ 1.57 µM).
Clc1ccc(C(Cn2ccnc2)=NOCc2ccc(C3CC3(Cl)Cl)cc2)c(Cl)c1 (stereo not shown) [Verbind. II, 1-(2,4-Dichlorphenyl)-2-(1H-imidazol-1-yl)-0-(4-(2,2-di-chlorcyclopropyl)benzyl)ethanonoxim-nitrat] gave an MIC (A.f.) of 25 µg/mL (≈ 53.3 µM), an MIC (C.a.) of 3.1 µg/mL (≈ 6.61 µM) and an MIC (C.t.) of 25 µg/mL (≈ 53.3 µM). The MIC (S.s.) was 1.6 µg/mL (≈ 3.41 µM), the MIC (T.m.) was 12.5 µg/mL (≈ 26.6 µM) and the MIC (T.r.) was 6.2 µg/mL (≈ 13.2 µM).
Clc1ccc(C(Cn2ccnc2)OCc2ccc(C3CC3(Cl)Cl)cc2)c(Cl)c1 (stereo not shown) [Verbind. III, 1-(2,4-Dichlorphenyl)-1-(4-(2,2-dichlorcyclopropyl)benzyloxy)-2-(1H-imidazol-1-yl)ethan-nitrat] gave an MIC (A.f.) of 1.6 µg/mL (≈ 3.51 µM), an MIC (C.a.) of 0.05 µg/mL (≈ 0.11 µM) and an MIC (C.t.) of 3.1 µg/mL (≈ 6.8 µM). It also gave an MIC (S.s.) of 0.2 µg/mL (≈ 0.438 µM), an MIC (T.m.) of 0.8 µg/mL (≈ 1.75 µM) and an MIC (T.r.) of 0.8 µg/mL (≈ 1.75 µM).
FC(F)(Oc1ccc(COC(Cn2ccnc2)c2ccc(Cl)cc2Cl)cc1)C(Cl)Cl (stereo not shown) [Verbind. IV, 1-(2,4-Dichlorphenyl)-1-(4-(2,2-dichlor-1,1-difluor-ethoxy)benzyloxy)-2-(1H-imidazol-1-yl)ethan-hydrochlorid] showed an MIC (A.f.) of 3.1 µg/mL, an MIC (C.a.) of 0.1 µg/mL and an MIC (C.t.) of 0.1 µg/mL. The MIC (T.m.) was 0.1 µg/mL, the MIC (T.r.) was 0.1 µg/mL and the MIC (Staphylococcus aureus) was 3.1 µg/mL. The MIC (Streptococcus faecalis) was 1.6 µg/mL and the MIC (Streptococcus pyogenes) was less than 0.2 µg/mL.
FC(Cl)C(F)(F)Oc1ccc(COC(Cn2ccnc2)c2ccc(Cl)cc2Cl)cc1 (stereo not shown) [Verbind. VI, 1-(2,4-Dichlorphenyl)-1-(4-(2-chlor-1,1,2-trifluorethoxy)benzyloxy)-2-(1H-imidazol-1-yl)ethan-nitrat] showed an MIC (A.f.) of 1.6 µg/mL (≈ 3.34 µM), an MIC (C.a.) of 0.05 µg/mL (≈ 0.104 µM) and an MIC (C.t.) of 1.6 µg/mL (≈ 3.34 µM). The MIC (M.c.) was 0.2 µg/mL (≈ 0.417 µM), the MIC (S.s.) was 0.1 µg/mL (≈ 0.208 µM) and the MIC (T.m.) was 0.8 µg/mL (≈ 1.67 µM). It also gave an MIC (T.r.) of 0.8 µg/mL (≈ 1.67 µM).
